The text below walks through data of US6544541B1, “Devices and compounds for treating arterial restenosis” (Cardiovascular Solutions, Inc., priority 1999, dated 2003).

For data set [1], the system named is porcine coronary artery smooth muscle cells.
Data set [2] concerns H4IIE hepatoma cells. Description: DNA synthesis (3H-thymidine incorporation) in H4IIE cells. Format: cell-based. The conditions noted are these: H4IIE cells. The procedure: Incorporation of uridine or thymidine was used to define the change in rate of […] synthesis, respectively, in response to a mitogen such as insulin. Specifically, quiescent H4IIE cells were prepared by placing the cultures (in 24-well dishes) into serum-free a-minimal essential medium for 3 days. It is of note that the normal growth media for H4IIE cells is α-MEM containing 10% fetal bovine serum (FBS). After reaching quiescence, the cells were stimulated with 1 μM insulin and incubated for either 6 hours or 24 hours in the presence of 1 μCi/ml ^3H-uridine or ^3H-thymidine, respectively. Cells were subsequently lysed with detergent and the nucleic acids precipitated with 5% trichloroacetic acid. The precipitated material was collected on glass fibre filters and the radioactive content measured by scintillation counting. […] Furthermore, while complete inhibition of DNA synthesis by MIBG is obtained at approximately 20 μM, higher concentrations decrease basal DNA synthesis below control levels.
In general terms: Dividing cells build labelled thymidine or BrdU into new DNA.

Data set [3] has as its system smooth muscle cells derived from human arterial conduits. In words: DNA synthesis and cytotoxicity in human smooth muscle cells. The settings on record: human cells; FIG. 26B.
Another data set deals with porcine femoral artery. Description: balloon angioplasty of the porcine femoral artery in vivo. Further details: species or system pigs. The settings on record: in vivo femoral angioplasty, relative to MIBG; FIG. 25. From the text:
To test the effectiveness of MIBG under in vivo conditions, this compound was applied to the femoral artery after balloon angioplasty. This model provided a means of testing both MIBG and the method of application. Specifically, male castrated farm pigs (25-30 kg) were anaesthetized and maintained on isoflurane throughout the procedure. With the pig in a supine position, the left femoral artery was exposed from the bifurcation of the femoral and superficial femoral arteries to the point of insertion of the femoral artery into the groin. A mixture of nitroglycerin and papaverine was applied to the vessel and the area was covered with a saline-soaked sponge to keep the tissues moist. The right femoral artery was also exposed, treated and covered with a sponge. The left femoral was then clamped at both groin insertion (proximal) and bifurcation (distal) points, and an arteriotomy made at the bifurcation. The balloon (6.0×20 mm) was inserted through the arteriotomy in a retrograde manner (i.e. toward the groin) to a position 20 mm from the arteriotomy and the proximal clamp removed. The balloon was inflated for 1 minute, deflated and carefully removed, and the arteriotomy was closed with 6.0 ProleneTM suture. MIBG in combination with a biocompatible glue, in this example, Tisseel®, was applied to the surface of the vessel extending from the arteriotomy to the proximal region past the site of balloon inflation. The fibrin glue ensured that MIBG slowly diffused into the vessel. Furthermore, the fibrin glue helps to retain MIBG at the site for several days. The right femoral was handled as described above. […] The extent of restenosis was subsequently monitored by morphometry. […] Digital images were captured with a DAGE-MTI CCD camera and analyzed with SigmaScan Software. The neointimal and medial areas are quantified and used to calculate the neointimal index: neointimal area/medial area. […] Even though the vehicle cannot be detected after 14 days, we conclude that it remains for the minimum period necessary.

A further data set deals with smooth muscle cells. Description: Boyden chamber smooth muscle cell migration in response to Angiotensin II. Type of data set: cell-based. The settings on record: 20 μM; 10 μM Angiotensin II in lower compartment; FIG. 17. The procedure:
Specifically, smooth muscle cells were seeded into the upper chamber of a Boyden chamber, which consists of two compartments that are separated by a permeable membrane. […] Specifically, migration to the lower compartment was determined by counting cells on the underside of the membrane. Data are presented as means ± standard error for six independent determinations.

Data set [4] relates to porcine coronary arteries. Description: coronary artery organ culture after balloon angioplasty (neointimal index). The conditions noted are these: organ culture, relative to MIBG; FIG. 24. An excerpt:
Although smooth muscle cell cultures can be used to determine the ability of a compound to inhibit proliferation, these cells are not good indicators of a compound's ability to prevent restenosis. This statement stems from the fact that several processes, including cell migration, proliferation and synthesis of ECM degrading enzymes, must be coordinately activated in order for restenosis to occur. A novel organ culture system has therefore been developed in order to test the effectiveness of MIBG and other compounds at preventing restenosis (Wilson et al, 1999, Cardiac Res 42: 761-772). In brief, hearts are transported from the abattoir to the laboratory on ice. The left descending coronary artery is exposed and a balloon catheter is inserted past the first bifurcation. The balloon is inflated, and after 1 minute is deflated and withdrawn. The damaged region (approximately 20 mm in length) is excised, cut into 4 pieces of 5 mm and each piece is placed into an individual well of a culture dish. These segments can be maintained in media containing 20% serum for up to 21 days. Upon harvest of the tissue, typically after 14 days, the vessel segments are placed into resin for histological analysis. Sections are prepared from vessel segments after removal of the first 1.5 mm. […] This file is imported into SigmaScan™, and staining in the areas of the intimal and medial layers quantified. […]

For data set [5] the following is noted: human studies; cited from earlier work.
For the next data set, the system named is H4IIE cells. Description: lactate dehydrogenase (LDH) release toxicity assay. Type of data set: cell-based. The settings on record: 96 hours; FIG. 5. As for the experimental part: To address the issue of MIBG toxicity, lactate dehydrogenase (LDH) release was measured after incubation with MIBG or MIBA. Quiescent H4IIE cells were prepared in 96-well dishes and treated with various concentrations of either MIBG or MIBA for 96 hours. To quantify the release of LDH from the cells, which only occurs if the cells are damaged or killed by the treatment, 100 μl of culture medium was transferred to a fresh dish. To this was added 100 μl of dye/catalyst mixture (Boehringer Mannheim cytotoxicity detection kitTM), and the samples were subsequently incubated for 30 minutes at 37° C. Absorbance of the solution was monitored at 490 nm. The colour intensity indicates the relative LDH content in the test samples. […] As a consequence, it is speculated that changes in LDH release may be coupled to non-toxic and reversible alterations in mitochondrial metabolism or membrane integrity as a result of MIBG treatment.

Data set [6] concerns H4IIE hepatoma cells. Description: flow cytometry, bromodeoxyuridine incorporation in proliferating cells. Type of data set: cell-based. The settings on record: 25 μM MIBG, 48 hours; FIG. 4. As for the experimental part: Additional verification that MIBG blocked cell proliferation was obtained using flow cytometry analysis. Proliferating H4IIE cells (<40% confluent) were incubated for 48 hours in the presence or absence (untreated control or containing MIBA) of 25 μM MIBG. The cells were pulse labeled with bromodeoxyuridine (BrdU) 2 hours before harvest to label replicating DNA. Cells were released by trypsinization, collected by centrifugation and permeabilized with Triton X-100 (1%). Replicated DNA was labeled with an anti-BrdU antibody conjugated to FITC (fluorescein isothiocyanate), while total DNA was labeled with propidium iodide. The FITC and propidium iodide labels were detected at 514 nm and 600 nm, respectively, with a Coulter flow cytometer™ (excitation wavelength 488 nm), and number of cells containing these fluors were quantified. The data were plotted as cells with propidium iodide versus cells with BrdU. […] To summarize, the results described above indicate that MIBG is a potent inhibitor of cell proliferation. Furthermore, the cellular process affected by MIBG is active throughout the cell cycle. This conclusion is based on the fact that there is no accumulation of cells at a specific phase of the cell cycle. In addition, it is of note that there is no apparent decrease in cell number or an increase in smaller cells, both characteristics of cell death.
(Flow cytometry measures light scatter and fluorescence of single cells or particles in a stream.)

A further data set concerns cell growth. The conditions noted are these: cited from earlier work.
The subject of data set [7] is Friend erythroleukemia cells. In words: Friend cell differentiation. Type of data set: cell-based. An excerpt: It is of note however that MIBG acts at a point in the differentiation pathway that is distinct from 3-aminobenzamide.

For benzylguanidine [BG], in [1], the “inhibition of thymidine incorporation” value is reported as “did not inhibit thymidine incorporation”. The “inhibition of DNA synthesis (thymidine incorporation)” value with H4IIE hepatoma cells [2] is “did not inhibit thymidine incorporation”.
In the case of `CC(C=NNC(=N)N)=NNC(=N)N` [methylGAG, methylglyoxal bis-(guanylhydrazone)], the “toxicity relative to MIBG” value in data set [3] and in data set [1] was “less toxicity” throughout. The “effectiveness in preventing neointimal formation” value (in the data set on porcine femoral artery; in [4]) was “as effective as MIBG” throughout. Moreover, the “smooth muscle cell migration” value in the data set on smooth muscle cells is reported as “inhibited smooth muscle cell migration”. For the same molecule, the “inhibition of thymidine incorporation, potency relative to MIBG” value in data set [1] is recorded as “slightly more potent inhibitor than MIBG”. Moreover, the “effectiveness in preventing cell growth” value is given as “as effective as MIBG” in data set [1] (smooth muscle cells, relative to MIBG) and “as effective as MIBG” in the data set on H4IIE hepatoma cells [2] (relative to MIBG). Besides, the “threshold of tolerance relative to MIBG” value in [5] is on record as “higher threshold of tolerance”.
On to `NCc1cccc(I)c1` [MIBA, meta-iodobenzylamine], for which, in the data set with H4IIE cells, the “concentration at which increased LDH release is detectable” value is at least 200 µM. Moreover, the “inhibition of DNA synthesis (thymidine incorporation)” value in the data set on H4IIE hepatoma cells [2] is “does not inhibit DNA synthesis”. In addition, the “bromodeoxyuridine incorporation (DNA synthesis)” value with H4IIE hepatoma cells [6] was “identical to those observed in the control cells”.
Regarding `NC(=O)c1cccc(N)c1` [3-aminobenzamide], the “concentrations at which cell growth is inhibited” value with cell growth is at least 1 mM. Also, the “effect on Friend cell differentiation” value in [7] is “inhibits the commitment phase”.
`N=C(N)NCCCCN` [agmatine]: in data set [1], the “inhibition of DNA synthesis in response to serum treatment” value is “does not inhibit DNA synthesis”.
